Data reported in patent publication US12116343B2, “Inhibitors of APOL1 and methods of using same” (Vertex Pharmaceuticals Incorporated, priority 2020, dated 2024).

Molecular target: T1, APOL1 G1 Protein (Homo sapiens, UniProt O14791, I384M/S342G)
T1 sequence (O14791 28-398 S342G/I384M): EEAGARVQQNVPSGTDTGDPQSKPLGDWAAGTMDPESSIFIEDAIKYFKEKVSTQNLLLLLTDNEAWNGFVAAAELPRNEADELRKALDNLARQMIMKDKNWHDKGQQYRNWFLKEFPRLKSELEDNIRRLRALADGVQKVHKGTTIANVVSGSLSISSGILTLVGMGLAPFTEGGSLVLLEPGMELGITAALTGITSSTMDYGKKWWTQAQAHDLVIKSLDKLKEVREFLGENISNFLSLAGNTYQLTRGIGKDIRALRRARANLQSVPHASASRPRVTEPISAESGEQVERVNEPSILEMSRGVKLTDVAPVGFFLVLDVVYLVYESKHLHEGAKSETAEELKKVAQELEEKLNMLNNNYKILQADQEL
Experiment: Trypanosoma brucei brucei lysis assay using APOL1 recombinant protein (AlamarBlue viability)
Assay type: cell-based
Settings: Trypanosoma brucei brucei lysis, recombinant APOL1, AlamarBlue; read-out: Trypanosoma Assay (IC50)
How it was run: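 Bloodstream-form T. b. brucei Lister 427 VSG 221, 120,000 parasites/well in phenol red-free, FBS-free medium, lysed by recombinant APOL1 G1 with compound (10-point dose response, 0.1% DMSO final). Viability read by AlamarBlue fluorescence against a parasite standard curve.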

SMILES | IC50 [nM]
COC[C@@H]1CCN1C(=O)[C@H]1C[C@H](c2c(-c3ccc(F)cc3)[nH]c3c(F)cc(F)cc32)C1 [Compound 220] | 250 to 1000
C[C@@H](NC(=O)[C@H]1C[C@H](c2c(-c3ccc(F)cc3)[nH]c3c(F)cc(F)cc32)C1)C(N)=O [Compound 28] | > 1000
CC(CO)(CO)NC(=O)[C@H]1C[C@H](c2c(-c3ccc(F)cc3)[nH]c3c(F)cc(F)cc32)C1 [Compound 186] | < 250
O=C(NC[C@@H](O)C(F)(F)F)[C@H]1C[C@H](c2c(-c3ccc(F)cc3)[nH]c3c(F)cc(F)cc32)C1 [Compound 177] | 250 to 1000
O=C(N[C@H]1C[C@H](O)C1)[C@H]1C[C@H](c2c(-c3ccc(F)cc3)[nH]c3c(F)cc(F)cc32)C1 [Compound 20] | 250 to 1000
O=C(N[C@H]1COC[C@@H]1O)[C@H]1C[C@H](c2c(-c3ccc(F)cc3)[nH]c3c(F)cc(F)cc32)C1 [Compound 184] | 250 to 1000
O=C(N[C@H]1CC[C@H]1O)[C@H]1C[C@H](c2c(-c3ccc(F)cc3)[nH]c3c(F)cc(F)cc32)C1 [Compound 181] | 250 to 1000
O=C(NC[C@H](O)C(F)(F)F)[C@H]1C[C@H](c2c(-c3ccc(F)cc3)[nH]c3c(F)cc(F)cc32)C1 [Compound 176] | < 250
CN(C(=O)[C@H]1C[C@H](c2c(-c3ccc(F)cc3)[nH]c3c(F)cc(F)cc32)C1)C1COCC1O (stereo partly shown) [Compound 205] | > 1000
O=C([C@H]1C[C@H](c2c(-c3ccc(F)cc3)[nH]c3c(F)cc(F)cc32)C1)N1CC[C@@H]1CO [Compound 195] | < 250
CC1CC(NC(=O)[C@H]2C[C@H](c3c(-c4ccc(F)cc4)[nH]c4c(F)cc(F)cc43)C2)C(=O)O1 (stereo partly shown) [Compound 207] | > 1000
O=C1CCC(NC(=O)[C@H]2C[C@H](c3c(-c4ccc(F)cc4)[nH]c4c(F)cc(F)cc43)C2)C(=O)N1 (stereo partly shown) [Compound 26] | 250 to 1000
O=C(NCc1nnco1)[C@H]1C[C@H](c2c(-c3ccc(F)cc3)[nH]c3c(F)cc(F)cc32)C1 [Compound 171] | < 250
NC(=O)C1CC(c2c(-c3ccc(F)cc3)[nH]c3c(F)cc(F)cc23)C1 (stereo not shown) [Compound 278, 3-[5,7-difluoro-2-(4-fluorophenyl)-1H-indol-3-yl]cyclobutanecarboxamide] | 250 to 1000
CC(O)(CO)CNC(=O)[C@H]1C[C@H](c2c(-c3ccc(F)cc3)[nH]c3c(F)cc(F)cc32)C1 (mixture of isomers) [Compound 216] | > 1000
O=C([C@H]1C[C@H](c2c(-c3ccc(F)cc3)[nH]c3c(F)cc(F)cc32)C1)N1C[C@@H](O)[C@H](O)C1 [Compound 227] | 250 to 1000
O=C(N[C@@H]1CCOC1)[C@H]1C[C@H](c2c(-c3ccc(F)cc3)[nH]c3c(F)cc(F)cc32)C1 [Compound 19] | 250 to 1000

SMILES | IC50 [nM]
CC1(NC(=O)[C@H]2C[C@H](c3c(-c4ccc(F)cc4)[nH]c4c(F)cc(F)cc43)C2)CCNC1=O (mixture of isomers) [Compound 197] | < 250
O=C(NC1(CO)CCOC1)[C@H]1C[C@H](c2c(-c3ccc(F)cc3)[nH]c3c(F)cc(F)cc32)C1 (stereo partly shown) [Compound 194] | < 250
O=C(NC[C@H](O)CO)[C@H]1C[C@H](c2c(-c3ccc(F)cc3)[nH]c3c(F)cc(F)cc32)C1 [Compound 225] | 250 to 1000
COCCNC(=O)[C@H]1C[C@H](c2c(-c3ccc(F)cc3)[nH]c3c(F)cc(F)cc32)C1 [Compound 12] | 250 to 1000
C#CC(CO)NC(=O)[C@H]1C[C@H](c2c(-c3ccc(F)cc3)[nH]c3c(F)cc(F)cc32)C1 (stereo partly shown) [Compound 196] | < 250
O=C(NCC1(O)CC1)[C@H]1C[C@H](c2c(-c3ccc(F)cc3)[nH]c3c(F)cc(F)cc32)C1 [Compound 183] | 250 to 1000
CC[C@H](CO)NC(=O)[C@H]1C[C@H](c2c(-c3ccc(F)cc3)[nH]c3c(F)cc(F)cc32)C1 [Compound 203] | 250 to 1000
CC(C)(CO)NC(=O)[C@H]1C[C@H](c2c(-c3ccc(F)cc3)[nH]c3c(F)cc(F)cc32)C1 [Compound 31] | 250 to 1000
O=C1OCC[C@@H]1NC(=O)[C@H]1C[C@H](c2c(-c3ccc(F)cc3)[nH]c3c(F)cc(F)cc32)C1 [Compound 188] | 250 to 1000
CC(CO)N(C)C(=O)[C@H]1C[C@H](c2c(-c3ccc(F)cc3)[nH]c3c(F)cc(F)cc32)C1 (mixture of isomers) [Compound 193] | 250 to 1000
O=C(NC[C@@H](O)CO)[C@H]1C[C@H](c2c(-c3ccc(F)cc3)[nH]c3c(F)cc(F)cc32)C1 [Compound 224] | > 1000
Cc1nnc(CNC(=O)[C@H]2C[C@H](c3c(-c4ccc(F)cc4)[nH]c4c(F)cc(F)cc43)C2)o1 [Compound 172] | < 250
O=C([C@H]1C[C@H](c2c(-c3ccc(F)cc3)[nH]c3c(F)cc(F)cc32)C1)N1CCC[C@@H]1CO [Compound 192] | < 250
CC(C#N)(CO)NC(=O)[C@H]1C[C@H](c2c(-c3ccc(F)cc3)[nH]c3c(F)cc(F)cc32)C1 (stereo partly shown) [Compound 191] | < 250
O=C1NCCCC1NC(=O)[C@H]1C[C@H](c2c(-c3ccc(F)cc3)[nH]c3c(F)cc(F)cc32)C1 (stereo partly shown) [Compound 23] | 250 to 1000
O=C([C@H]1C[C@H](c2c(-c3ccc(F)cc3)[nH]c3c(F)cc(F)cc32)C1)N1CCC[C@H]1CO [Compound 210] | 250 to 1000
O=C(N[C@H]1CNC[C@@H]1O)[C@H]1C[C@H](c2c(-c3ccc(F)cc3)[nH]c3c(F)cc(F)cc32)C1 [Compound 212] | 250 to 1000
